Results reported in patent publication US8614203B2, “Methods for the treatment of a central nervous system injury via a tapered administration protocol” (Emory University, priority 2005, dated 2013).

Tests used:
[1] = system: p53, active Caspase 3, TNFα and NFκB; assay: Example 3: Western blot of apoptotic and inflammatory proteins; type: in vivo, Sprague-Dawley rats
Experimental: Male Sprague-Dawley rats received either medial frontal cortex injury or sham surgery. Injections were given 1 and 6 hours post-injury, and every 24 hours for 7 days. Treatment groups (n=8) encompassed injured (I) and sham (S) acute withdrawal (AW), tapered withdrawal (TW) and vehicle (V) treatments. TW injections were progressively halved over the final two treatments. Behavioral testing was conducted post-surgery, mid- and post-withdrawal. Activity boxes were used to investigate vertical movements and exploration: Sensory neglect and anxiety behaviors were also analyzed. Brain harvesting was performed at 8 days or 3 weeks post-injury. Perfused tissue sections were analyzed for lesion volume and immunohistochemical response. Fresh brain tissue was flash frozen in chilled 2-methyl butane, and then homogenized for Western blot analysis.

p53 = assay: Example 4: Western blotting densitometry, p53; type: in vivo, Sprague-Dawley rats; details: all progesterone-treated animals (AW and TW); two weeks post-withdrawal
Excerpt: 60 male Sprague-Dawley rats weighing 290-310 g at the time of injury were used in this experiment. Food and water were provided ad libidum before and after surgery. Animals were handled and weighed daily from their arrival, seven days pre-surgery, to brain extraction three weeks post-surgery. Animals were handled in squads of 12, with n=10 per experimental condition. All animal procedures were approved by the Emory University Animal Care and Use Committee, Protocol #131-2002.
Isofluorane anesthesia was induced for four minutes and 45 seconds at 5% and maintained at 2.5%. Normal body temperature was maintained with a surgical heating pad placed beneath the sterile dressings. The scalp incision area was shaved and sterilized with iodine and isopropanol. A midline incision was made along the scalp and the fascia cleared to expose the surface of the skull. Medial, lateral, and dorsal stereotaxic coordinates were determined at bregma, and a 5-7 mm diameter bilateral craniotomy was performed mid-sagitally, 3 mm anterior to bregma. […] Sutures were used to close the incision after bleeding ceased. […]
Brains for protein analysis were sectioned into the immediate area of the lesion and snap frozen in 2-methyl-butane chilled on dry ice. […] The amount of brain homogenate needed to standardize samples to 2 μg/μL for Western blotting was calculated from the results of these assays. […]

CC(=O)[C@H]1CC[C@H]2[C@@H]3CCC4=CC(=O)CC[C@]4(C)[C@H]3CC[C@]12C [progesterone, pregn-4-ene-3,20-dione] was tested, and the “expression of apoptotic and inflammatory proteins, outcome vs vehicle” value ([1]; all progesterone treatments (acute and tapered) vs vehicle-only controls) was “all progesterone treatments led to better outcomes compared to vehicle-only controls”, the “apoptosis and inflammation (p53, active Caspase 3, TNFα, NFκB)” value ([1]; tapered withdrawal (TW)) was “decreased with TW” and the “p53 levels (long-term marker of apoptosis)” value (p53) was “p53 levels indistinguishable from vehicle shams”.
